In patent US8378104B2 (OSI Pharmaceuticals, LLC, priority 2010, dated 2013):
pIC50: −log10 of the molar value. Structures can show the parent of a compound that is named as a salt. Where two headings read alike, the source gives them in different places.

Key:
TAK1-TAB1 fusion protein = target: T1, TAK1-TAB1 fusion protein (Homo sapiens, UniProt O43318); assay: TAK1 biochemical assay (AlphaScreen, GST-MAP2K7 substrate)
T1 construct: purchased Carna
T1 sequence (O43318 with tags, fused parts or gaps limits assumed): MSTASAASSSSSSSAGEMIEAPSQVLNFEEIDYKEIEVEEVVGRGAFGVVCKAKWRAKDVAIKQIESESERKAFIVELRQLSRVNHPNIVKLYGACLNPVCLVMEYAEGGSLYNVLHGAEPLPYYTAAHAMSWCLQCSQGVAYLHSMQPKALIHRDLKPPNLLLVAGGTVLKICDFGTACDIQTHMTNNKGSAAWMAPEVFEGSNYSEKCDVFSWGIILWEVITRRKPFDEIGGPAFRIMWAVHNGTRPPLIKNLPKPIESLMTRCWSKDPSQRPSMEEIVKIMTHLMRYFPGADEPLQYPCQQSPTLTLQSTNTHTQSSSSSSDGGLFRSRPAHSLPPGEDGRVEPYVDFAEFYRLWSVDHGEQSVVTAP

pJNK in HCT-116 cells = assay: Phospho-JNK (Thr183/Tyr185) Meso Scale ELISA assay, TNFα-stimulated HCT-116 cells; format: cell-based; details: Homo sapiens, read-out: mean HCT-116 pJNK ELISA IC50 (Col. B)
Experimental: Detailed below are ELISA assays for pJNK and p38, and a TAK1 biochemical assay. […] In Table 1, Col.
Phospho-JNK (Thr183/Tyr185) Meso Scale ELISA Assay
• 1. Plate HCT-116 cells at 25,000 per well in 100 uL in 96 well clear dishes in normal growth medium. Day 2: • 1. Aspirate medium and replace with 90 μl reduced serum growth medium (1% FCS), incubate for 2 hours at 37° C. • 2. Make drugs at 10× in reduced serum medium and add 10 uL per well. • 3. Incubate at 37° C. for 4 hrs. • 4. Bring capture plates to room temperature. • 5. Block with 150 μl Blocking Solution (provided with kit) (600 mg Blocker A into 20 mL 1× Wash Buffer per plate) at room temperature with shaking. • 6. Wash plates 4× with 200 μl 1× wash buffer (10× provided with kit) before transferring lysates. • 7. Dilute TNFα to […] in reduced serum medium (this makes a 10× working stock). • 8. Add 10 μl TNFα to all wells except negative control wells, final concentration is 10 ng/mL. • 9. Incubate at 37° C. for 10 minutes. • 10. Remove medium by flicking into sink • 11. Wash cells with 100 uL ice cold PBS. • 12. Remove PBS by flicking into sink and patting on paper towels. • 13. Lyse cells in 50 μl ice cold 1× Complete Lysis Buffer plus Phosphatase and Protease inhibitors (all provided with kit) (10 mL Tris Lysis Buffer+200 μl Protease inhibitor solution+100 μl Phosphatase inhibitor I+100 μl Phosphatase inhibitor II). • 14. Incubate with shaking at 4° C. for 30 minutes. • 15. Transfer 45 μl to capture plate, cover with adhesive cover, and incubate at 4° C. over night with shaking. • Day 3: • 1. Wash plates 4× with 200 μl 1× wash buffer (10× provided with kit). • 2. […] Incubate at room temperature with shaking for 1 hour. • 4. Wash 4× with 200 μl 1× Wash Buffer. • 5. […] Read on Sector Imager. Phospho-p38 Meso Scale ELISA Assay Day 1: • 1. Plate HCT-116 cells at 25,000 per well in 100 uL in 96 well clear dishes in normal growth medium. zday 2: • 1. Aspirate medium and replace with 90 μl reduced serum growth medium (1% FCS), incubate for 2 hours at 37° C. • 2. Make drugs at 10× in reduced serum medium and add 10 uL per well. • 3. Incubate at 37° C. for 4 hrs. • 4. Bring capture plates to room temperature. • 5. Block with 150 μl Blocking Solution (provided with kit) (600 mg Blocker A into 20 mL 1× Wash Buffer per plate) at room temperature with shaking. • 6. Wash plates 4× with 200 μl 1× wash buffer (10× provided with kit) before transferring lysates. • 7. Dilute TNFα to […] in reduced serum medium (this makes a 10× working stock). • 8. Add 10 μl TNFα to all wells except negative control wells, final concentration is 10 ng/mL. • 9. Incubate at 37° C. for 10 minutes. • 10. Remove medium by flicking into sink • 11. Wash cells with 100 uL ice cold PBS. • 12. Remove PBS by flicking into sink and patting on paper towels. • 13. Lyse cells in 50 μl ice cold 1× Complete Lysis Buffer plus phosphatase and protease inhibitors (all provided with kit) (10 mL Tris Lysis Buffer+200 μl Protease inhibitor solution+100 μl Phosphatase inhibitor I+100 μl Phosphatase inhibitor II). • 14. Incubate with shaking at 4° C. for 30 minutes. • 15. Dilute lysates before transferring to capture plate with 100 μl Complete p38 Lysate • Dilution Buffer (provided with kit) (10 mL of Diluent 20±200 μl Protease inhibitor solution+100 μl Phosphatase inhibitor I+100 μl Phosphatase inhibitor II). • 16. Transfer 50 μl of diluted lysates to capture plate, cover with adhesive cover, and incubate at 4° C. over night with shaking. Day 3: • 1. Wash plates 4× with 200 μl 1× wash buffer (10× provided with kit). • 2. […] Incubate at room temperature with shaking for 1 hour. • 4. Wash 4× with 200 μl 1× Wash Buffer. • 5. […] Read on Sector Imager. TAK1 Biochemical Assay

[1] = TAK1-TAB1 fusion protein, GST-MAP2K7 substrate, read-out: mean TAK1 IC50 (Col. A)

Nc1ncc(-c2cnn([C@H]3CC[C@H](O)C3)c2)c2cc(-c3csc4cnccc34)oc12 [Example 307, (1S,3S)-3-[4-(7-amino-2-thieno[2,3-c]pyridin-3-yl-furo[2,3-c]pyridin-4-yl)-pyrazol-1-yl]-cyclopentanol]
pIC50 (TAK1-TAB1 fusion protein; [1]): > 7.00
pIC50 (pJNK in HCT-116 cells): 6.00 to 7.00

Nc1ncc(-c2cnn(C3CCC(O)C3)c2)c2cc(-c3csc4cnccc34)oc12 (centres unmarked) [Example 306, 3-[4-(7-amino-2-thieno[2,3-c]pyridin-3-yl-furo[2,3-c]pyridin-4-yl)-pyrazol-1-yl]-cyclopentanol]
pIC50 (TAK1-TAB1 fusion protein; [1]): > 7.00
pIC50 (pJNK in HCT-116 cells): 6.00 to 7.00

Nc1ncc(-c2cnn([C@@H]3C[C@H]4CC[C@@H](C3)N4C=O)c2)c2cc(-c3cccc4cnsc34)oc12 [Example 326, (3-exo)-3-{4-[7-amino-2-(1,2-benzisothiazol-7-yl)furo[2,3-c]pyridin-4-yl]-1H-pyrazol-1-yl}-8-azabicyclo[3.2.1]octane-8-carbaldehyde]
pIC50 (TAK1-TAB1 fusion protein; [1]): > 7.00
pIC50 (pJNK in HCT-116 cells): > 7.00

Nc1ncc(-c2cnn([C@@H]3CCC[C@H](O)C3)c2)c2cc(-c3csc4cnccc34)oc12 (relative stereo) [Example 310, cis-3-[4-(7-amino-2-thieno[2,3-c]pyridin-3-yl-furo[2,3-c]pyridin-4-yl)-pyrazol-1-yl]-cyclohexanol]
pIC50 (TAK1-TAB1 fusion protein; [1]): > 7.00
pIC50 (pJNK in HCT-116 cells): > 7.00

N#Cc1ccc2cnsc2c1-c1cc2c(-c3cnn([C@H]4CC[C@H](O)CC4)c3)cnc(N)c2o1 [Example 372, 7-{7-amino-4-[1-(trans-4-hydroxycyclohexyl)-1H-pyrazol-4-yl]furo[2,3-c]pyridin-2-yl}-1,2-benzothiazole-6-carbonitrile.diformate]
pIC50 (TAK1-TAB1 fusion protein; [1]): 5.00 to 6.00
pIC50 (pJNK in HCT-116 cells): 6.00 to 7.00

CC(=O)N1[C@@H]2CC[C@H]1C[C@H](n1cc(-c3cnc(N)c4oc(-c5csc6cnccc56)cc34)cn1)C2 [Example 325, 1-[(3-exo)-3-{4-[7-amino-2-(thieno[2,3-c]pyridin-3-yl)furo[2,3-c]pyridin-4-yl]-1H-pyrazol-1-yl}-8-azabicyclo[3.2.1]oct-8-yl]ethanone]
pIC50 (TAK1-TAB1 fusion protein; [1]): > 7.00
pIC50 (pJNK in HCT-116 cells): > 7.00

Nc1ncc(-c2cnn([C@@H]3CCC[C@@H](O)C3)c2)c2cc(-c3cccc4cnsc34)oc12 (relative stereo) [Example 313, trans-3-[4-(7-amino-2-benzo[d]isothiazol-7-yl-furo[2,3-c]pyridin-4-yl)-pyrazol-1-yl]-cyclohexanol]
pIC50 (TAK1-TAB1 fusion protein; [1]): > 7.00
pIC50 (pJNK in HCT-116 cells): 6.00 to 7.00

Nc1ncc(-c2cnn([C@@H]3CCC[C@@H](O)C3)c2)c2cc(-c3csc4cnccc34)oc12 (relative stereo) [Example 309, trans-3-[4-(7-amino-2-thieno[2,3-c]pyridin-3-yl-furo[2,3-c]pyridin-4-yl)-pyrazol-1-yl]-cyclohexanol]
pIC50 (TAK1-TAB1 fusion protein; [1]): > 7.00
pIC50 (pJNK in HCT-116 cells): > 7.00

Nc1ncc(-c2cnn([C@H]3CC[C@H](O)CC3)c2)c2c(Cl)c(-c3cccc4nnsc34)oc12 [Example 286, trans-4-{4-[7-amino-2-(1,2,3-benzothiadiazol-7-yl)-3-chlorofuro[2,3-c]pyridin-4-yl]-1H-pyrazol-1-yl}cyclohexanol]
pIC50 (TAK1-TAB1 fusion protein): > 7.00
pIC50 (pJNK in HCT-116 cells): > 7.00

Nc1ncc(-c2cnn([C@H]3CC[C@H](O)CC3)c2)c2c(Cl)c(-c3cccc4ncsc34)oc12 [Example 288, trans-4-{4-[7-amino-2-(1,3-benzothiazol-7-yl)-3-chlorofuro[2,3-c]pyridin-4-yl]-1H-pyrazol-1-yl}cyclohexanol]
pIC50 (TAK1-TAB1 fusion protein; [1]): > 7.00
pIC50 (pJNK in HCT-116 cells): > 7.00

Nc1ncc(-c2cnn([C@H]3CC[C@H](O)CC3)c2)c2cc(-c3csc4cnc(O)cc34)oc12 [Example 360, 3-{7-Amino-4-[1-(trans-4-hydroxycyclohexyl)-1H-pyrazol-4-yl]furo[2,3-c]pyridin-2-yl}thieno[2,3-c]pyridin-5-ol]
pIC50 (TAK1-TAB1 fusion protein; [1]): 6.00 to 7.00
pIC50 (pJNK in HCT-116 cells): 5.00 to 6.00

CC(C)N1[C@@H]2CC[C@H]1C[C@H](n1cc(-c3cnc(N)c4oc(-c5csc6cnccc56)cc34)cn1)C2 [Example 329, 4-{1-[(3-exo)-8-(propan-2-yl)-8-azabicyclo[3.2.1]oct-3-yl]-1H-pyrazol-4-yl}-2-(thieno[2,3-c]pyridin-3-yl)furo[2,3-c]pyridin-7-amine]
pIC50 (TAK1-TAB1 fusion protein; [1]): > 7.00
pIC50 (pJNK in HCT-116 cells): 6.00 to 7.00

CC(=O)N1CCC(n2cc(-c3cnc(N)c4oc(-c5c(F)ccc6cnsc56)cc34)cn2)CC1 [Example 239, 1-(4-{4-[7-amino-2-(6-fluoro-1,2-benzothiazol-7-yl)furo[2,3-c]pyridin-4-yl]-1H-pyrazol-1-yl}piperidin-1-yl)ethanone diformate salt]
pIC50 (TAK1-TAB1 fusion protein; [1]): 6.00 to 7.00
pIC50 (pJNK in HCT-116 cells): 6.00 to 7.00

Nc1ncc(-c2cnn([C@@H]3C[C@H]4CC[C@@H](C3)N4C=O)c2)c2cc(-c3csc4cnccc34)oc12 [Example 324, (3-exo)-3-{4-[7-amino-2-(thieno[2,3-c]pyridin-3-yl)furo[2,3-c]pyridin-4-yl]-1H-pyrazol-1-yl}-8-azabicyclo[3.2.1]octane-8-carbaldehyde]
pIC50 (TAK1-TAB1 fusion protein; [1]): > 7.00
pIC50 (pJNK in HCT-116 cells): > 7.00

CCNc1nc2cccc(-c3cc4c(-c5cnn([C@H]6CC[C@H](O)CC6)c5)cnc(N)c4o3)c2s1 [Example 355, trans-4-(4-{7-amino-2-[2-(ethylamino)-1,3-benzothiazol-7-yl]furo[2,3-c]pyridin-4-yl}-1H-pyrazol-1-yl)cyclohexanol Trifluoroacetate (Salt)]
pIC50 (TAK1-TAB1 fusion protein; [1]): > 7.00
pIC50 (pJNK in HCT-116 cells): > 7.00

Nc1ncc(-c2ccoc2)c2cc(-c3csc4cnccc34)oc12 [Example 392, 4-(furan-3-yl)-2-(thieno[2,3-c]pyridin-3-yl)furo[2,3-c]pyridin-7-amine trifluoroacetate]
pIC50 (TAK1-TAB1 fusion protein; [1]): 6.00 to 7.00
pIC50 (pJNK in HCT-116 cells): 5.00 to 6.00

CC(=O)N1CCC(n2cc(-c3cnc(N)c4oc(-c5cccc6ncsc56)cc34)cn2)CC1 [Example 225, 1-(4-{4-[7-amino-2-(1,3-benzothiazol-7-yl)furo[2,3-c]pyridin-4-yl]-1H-pyrazol-1-yl}piperidin-1-yl)ethanone diformate salt]
pIC50 (TAK1-TAB1 fusion protein; [1]): > 7.00
pIC50 (pJNK in HCT-116 cells): > 7.00

CC(=O)N1CCC(n2cc(-c3cnc(N)c4oc(-c5ccc(F)c6cnsc56)cc34)cn2)CC1 [Example 223, 1-(4-{4-[7-amino-2-(4-fluoro-1,2-benzothiazol-7-yl)furo[2,3-c]pyridin-4-yl]-1H-pyrazol-1-yl}piperidin-1-yl)ethanone diformate salt]
pIC50 (TAK1-TAB1 fusion protein; [1]): 6.00 to 7.00
pIC50 (pJNK in HCT-116 cells): 6.00 to 7.00

Nc1ncc(-c2cnn([C@@H]3CC[C@@H](O)C3)c2)c2cc(-c3csc4cnccc34)oc12 [Example 308, (1R,3R)-3-[4-(7-amino-2-thieno[2,3-c]pyridin-3-yl-furo[2,3-c]pyridin-4-yl)-pyrazol-1-yl]-cyclopentanol]
pIC50 (TAK1-TAB1 fusion protein; [1]): > 7.00
pIC50 (pJNK in HCT-116 cells): 6.00 to 7.00
